Test results from patent US8173120B2, “Method of preventing reduced feed intake in animals and treatment of disease conditions” (Precision Nutrition Pty Ltd, priority 2005, dated 2012).
Like-named read-outs stand apart in the source and are kept apart here.

Columns and labels:
[1] = feed intake of horses on sudden or gradual introduction of virginiamycin (Founderguard); type: in vivo
Protocol: The aim of the experiment was to determine if there is a depression in feed intake when horses are first given Founderguard at the recommended dose rate of 0.5 mg virginiamycin per kg body weight per day, and whether a gradual or sudden introduction of Founderguard has different effects on feed intake during the introductory period.
Five horses of mixed ages and sexes were used in the experiment. All horses were treated against intestinal parasites prior to the Control period.
Open air feeding stalls approximately 2.5 m square were prepared with ground-level hay feeders, car tyre bucket-holders for feeding grain and a water trough shared between two stalls. Horses entered the stalls around 7.00 AM each day and were let out for exercise around 5.00 PM. […]
All the oats offered were consumed. Intake of all feed was measured on an ‘as-fed’ basis. […] While not measured objectively the quality of hay used in Period 2 was considered to be of higher quality than that used in Period 1. The effect of treatment on feed intake for each horse was calculated each day as a percentage of the mean intake for that animal during the five days of ‘Control’ intake measurement. […]
Feed intake was measured for at least 5 days without Founderguard (control intake) before commencing the five day treatment period. […]

[2] = system: lactic acid producing bacteria; experiment: in vitro function assay: lactic acid and pH after incubation of faecal/colonic samples from horses fed virginiamycin pellets; type: in vivo
Excerpt: Twelve horses were housed individually and fed 2.5 kg/d of a commercial horse concentrate each morning. Approximately 6 kg of medium quality lucerne hay was fed after animals had consumed the concentrate.
The experiment was run in three periods with 4 animals in the stables during each period. Each period lasted 12 days: five days to allow adaptation to the stables and the dietary regime, and then 7 days when medicated pellets containing different concentrations of virginiamycin were fed. Faecal samples were taken on the day before feeding medicated feed and then on days 2, 4 and 6 of feeding the medicated pellets.
The effectiveness of each dose rate and time on treatment was determined using an in vitro function assay to determine the amount of lactic acid produced during in vitro incubation of faecal material or samples taken from the distal colon. The fermentation of faecal material was carried out as follows. Fresh faecal material was obtained prior to the morning feed. Where warm material was available in the stable this was used, otherwise a rectal sample was obtained. A sub-sample of 150 g was mixed with an equal volume of distilled water and then strained through nylon gauze. Aliquots of supernatant were dispensed into 3 replicate tubes (4 ml/tube) and 1 ml of glucose solution (50 mg glucose/ml) was added before pricking the lid of the plastic vial with a 25 g needle and incubating for 20 to 24 hours at 37°. Following incubation the measurements of pH were made before centrifugation of a sub-sample prior to L-lactic acid analysis.
The results of the in vitro function assay are summarised in Tables 2 and 3 and represented graphically in FIG. 3. It is relevant to note that the level of glucose used in the in vitro incubations is effectively higher than any amount of carbohydrate which could be used in vivo. In the in vitro model, no volatile fatty acids are removed from the incubation flask through “absorption”.
The result of this is that the pH drops in vitro by more than it would in vivo and that a lactate-based fermentation develops more readily. It is therefore probably unrealistic to expect that lactate production can be completely controlled in this in vitro incubation model. Initially it was considered that the “baseline” in the in vitro model could be set around 10 mmol/L for an effective dose rate of virginiamycin. However, given the variable response around the 0.5 mg/kg dose rate in terms of lactic acid accumulation in the in vitro model it may be advisable to set a lower threshold for mean lactic acid concentration in determining the effective dose rate.

[3] = horses, very high concentrations (500 mg/kg complete feed); cited from earlier work
[4] = feed intake on introduction of virginiamycin into the diet (general statements); type: in vivo, sheep, cattle and horses
[5] = horse 1, 640 mg/d, 1.422 mg/kg, 2 days on medicated feed
[6] = horse 1, 640 mg/d, 1.422 mg/kg, 6 days on medicated feed
[7] = horse 2, 160 mg/d, 0.343 mg/kg, 2 days on medicated feed
[8] = horse 2, 160 mg/d, 0.343 mg/kg, 4 days on medicated feed
[9] = horse 3, 1280 mg/d, 2.639 mg/kg, 2 days on medicated feed
[10] = horse 3, 1280 mg/d, 2.639 mg/kg, 4 days on medicated feed
[11] = horse 3, 1280 mg/d, 2.639 mg/kg, 6 days on medicated feed
[12] = horse 4, 20 mg/d, 0.042 mg/kg, 2 days on medicated feed
[13] = horse 4, 20 mg/d, 0.042 mg/kg, 4 days on medicated feed
[14] = horse 4, 20 mg/d, 0.042 mg/kg, 6 days on medicated feed
[15] = horse 5, 160 mg/d, 0.359 mg/kg, 2 days on medicated feed
[16] = horse 5, 160 mg/d, 0.359 mg/kg, 4 days on medicated feed
[17] = horse 5, 160 mg/d, 0.359 mg/kg, 6 days on medicated feed
[18] = horse 6, 40 mg/d, 0.091 mg/kg, 2 days on medicated feed
[19] = horse 6, 40 mg/d, 0.091 mg/kg, 4 days on medicated feed
[20] = horse 7, 640 mg/d, 1.475 mg/kg, 2 days on medicated feed
[21] = horse 7, 640 mg/d, 1.475 mg/kg, 4 days on medicated feed
[22] = horse 7, 640 mg/d, 1.475 mg/kg, 6 days on medicated feed
[23] = horse 8, 80 mg/d, 0.154 mg/kg, 2 days on medicated feed
[24] = horse 8, 80 mg/d, 0.154 mg/kg, 6 days on medicated feed
[25] = horse 9, 80 mg/d, 0.180 mg/kg, 2 days on medicated feed
[26] = horse 9, 80 mg/d, 0.180 mg/kg, 4 days on medicated feed
[27] = horse 10, 320 mg/d, 0.702 mg/kg, 2 days on medicated feed
[28] = horse 10, 320 mg/d, 0.702 mg/kg, 4 days on medicated feed
[29] = horse 11, 160 mg/d, 0.432 mg/kg, 2 days on medicated feed
[30] = horse 11, 160 mg/d, 0.432 mg/kg, 6 days on medicated feed
[31] = horse 12, 320 mg/d, 0.693 mg/kg, 2 days on medicated feed
[32] = horse 12, 320 mg/d, 0.693 mg/kg, 6 days on medicated feed

virginiamycin
effect on feed intake ([1]; gradual introduction over 4 days (25, 50, 75, 100% of complete dose)): does not cause a depression in feed intake | feed intake compared to pretreatment levels (day 0) and to gradual introduction ([1]; sudden introduction of the full dose (0.5 mg/kg bodyweight per day)): significant decrease in feed intake | control of lactic acid production ([2]; 0.4 to 0.7 mg per kg bodyweight per day, after three to four days): partial and variable levels of controlling lactic acid production | control of lactic acid producing bacteria in faecal/colonic digesta ([2]; 1.4 and 2.6 mg/kg body weight, 48 hours after first treatment): good control of lactic acid producing bacteria | capacity for lactic acid production ([2]; 1.4 and 2.6 mg/kg body weight, days 4 and 6 as well as day 2): remained low | capacity for lactic acid production ([2]; average of 0.4 and 0.7 mg/kg bodyweight per day, days 2, 4 and 6, response more variable and less complete than higher dose rates): reduction in capacity for lactic acid production | control of lactic acid production ([2]; dose rates over 1.4 mg per kg body weight, after two days of treatment): almost complete control | L-lactate concentration following incubation of faecal samples, Mean [2, 5]: 0 mmol/L | pH measured following incubation of faecal samples, Mean [2, 5]: 5.11 | L-lactate concentration following incubation of faecal samples, Mean [2, 6]: 4 mmol/L | pH measured following incubation of faecal samples, Mean [2, 6]: 4.94 | L-lactate concentration following incubation of faecal samples, Mean [2, 7]: 17 mmol/L | pH measured following incubation of faecal samples, Mean [2, 7]: 4.61 | L-lactate concentration following incubation of faecal samples, Mean [2, 8]: 21 mmol/L | pH measured following incubation of faecal samples, Mean [2, 8]: 4.76 | L-lactate concentration following incubation of faecal samples, Mean ([2]; horse 2, 160 mg/d, 0.343 mg/kg, 6 days on medicated feed): 12 mmol/L | L-lactate concentration following incubation of faecal samples, Mean [2, 9]: 0 mmol/L | pH measured following incubation of faecal samples, Mean [2, 9]: 4.43 | L-lactate concentration following incubation of faecal samples, Mean [2, 10]: 0 mmol/L | pH measured following incubation of faecal samples, Mean [2, 10]: 4.71 | L-lactate concentration following incubation of faecal samples, Mean [2, 11]: 1 mmol/L | pH measured following incubation of faecal samples, Mean [2, 11]: 4.59 | L-lactate concentration following incubation of faecal samples, Mean [2, 12]: 47 mmol/L | pH measured following incubation of faecal samples, Mean [2, 12]: 3.63 | L-lactate concentration following incubation of faecal samples, Mean [2, 13]: 47 mmol/L | pH measured following incubation of faecal samples, Mean [2, 13]: 4.02 | L-lactate concentration following incubation of faecal samples, Mean [2, 14]: 31 mmol/L | pH measured following incubation of faecal samples, Mean [2, 14]: 4.28 | L-lactate concentration following incubation of faecal samples, Mean [2, 15]: 0 mmol/L | pH measured following incubation of faecal samples, Mean [2, 15]: 4.48 | L-lactate concentration following incubation of faecal samples, Mean [2, 16]: 0 mmol/L | pH measured following incubation of faecal samples, Mean [2, 16]: 4.73 | L-lactate concentration following incubation of faecal samples, Mean [2, 17]: 0 mmol/L | pH measured following incubation of faecal samples, Mean [2, 17]: 5.09 | L-lactate concentration following incubation of faecal samples, Mean [2, 18]: 23 mmol/L | pH measured following incubation of faecal samples, Mean [2, 18]: 4.11 | L-lactate concentration following incubation of faecal samples, Mean [2, 19]: 25 mmol/L | pH measured following incubation of faecal samples, Mean [2, 19]: 4.11 | L-lactate concentration following incubation of faecal samples, Mean ([2]; horse 6, 40 mg/d, 0.091 mg/kg, 6 days on medicated feed): 24 mmol/L | L-lactate concentration following incubation of faecal samples, Mean [2, 20]: 1 mmol/L | pH measured following incubation of faecal samples, Mean [2, 20]: 4.85 | L-lactate concentration following incubation of faecal samples, Mean [2, 21]: 1 mmol/L | pH measured following incubation of faecal samples, Mean [2, 21]: 4.64 | L-lactate concentration following incubation of faecal samples, Mean [2, 22]: 1 mmol/L | pH measured following incubation of faecal samples, Mean [2, 22]: 4.67 | L-lactate concentration following incubation of faecal samples, Mean [2, 23]: 5 mmol/L | pH measured following incubation of faecal samples, Mean [2, 23]: 4.41 | L-lactate concentration following incubation of faecal samples, Mean [2, 24]: 44 mmol/L | pH measured following incubation of faecal samples, Mean [2, 24]: 4.36 | L-lactate concentration following incubation of faecal samples, Mean [2, 25]: 4 mmol/L | pH measured following incubation of faecal samples, Mean [2, 25]: 4.83 | L-lactate concentration following incubation of faecal samples, Mean [2, 26]: 37 mmol/L | pH measured following incubation of faecal samples, Mean [2, 26]: 4.25 | L-lactate concentration following incubation of faecal samples, Mean ([2]; horse 9, 80 mg/d, 0.180 mg/kg, 6 days on medicated feed): 29 mmol/L | L-lactate concentration following incubation of faecal samples, Mean [2, 27]: 1 mmol/L | pH measured following incubation of faecal samples, Mean [2, 27]: 4.67 | L-lactate concentration following incubation of faecal samples, Mean [2, 28]: 1 mmol/L | pH measured following incubation of faecal samples, Mean [2, 28]: 5.06 | L-lactate concentration following incubation of faecal samples, Mean ([2]; horse 10, 320 mg/d, 0.702 mg/kg, 6 days on medicated feed): 15 mmol/L | L-lactate concentration following incubation of faecal samples, Mean [2, 29]: 4 mmol/L | pH measured following incubation of faecal samples, Mean [2, 29]: 4.54 | L-lactate concentration following incubation of faecal samples, Mean [2, 30]: 19 mmol/L | pH measured following incubation of faecal samples, Mean [2, 30]: 4.12 | L-lactate concentration following incubation of faecal samples, Mean [2, 31]: 36 mmol/L | pH measured following incubation of faecal samples, Mean [2, 31]: 3.85 | L-lactate concentration following incubation of faecal samples, Mean [2, 32]: 3 mmol/L | pH measured following incubation of faecal samples, Mean [2, 32]: 4.93 | prevention of over production of lactic acid ([2]; horses, low dose rates such as 0.1 mg per kg bodyweight per day): may not be effective in preventing over production of lactic acid | effect on feed intake [3]: reduce feed intake | feed intake compared to pre-medication levels ([4]; gradually increasing doses): no detectable decrease in feed intake | feed intake, average, of the pretreatment level ([4]; sudden introduction of the full dose rate): around 80% | reduction of feed intake ([4]; sudden introduction to sheep, cattle or horses at 0.5 mg per kg body weight and above, or 20 g/tonne and above): ≥ 20%
